Measured values as given in the kinase profiling compilation of Christmann-Franck et al. (2016).

Tests used:
Experiment in all cases: KINOMEscan competition binding
Conditions in all cases: compound 10.0 µM
[1] = biological target: JAK3 JH1 catalytic (human) (UniProt P52333)
FGFR1 (human) = FGFR1 (human) (UniProt P11362)
MAP3K11 (human) = MAP3K11 (human) (UniProt Q16584)
[2] = test system: KIT (human), P10721 [V559D]
MERTK (human) = MERTK (human) (UniProt Q12866)
PLK1 (human) = PLK1 (human) (UniProt P53350)
CDK17 (human) = CDK17 (human) (UniProt Q00537)
MARK3 (human) = MARK3 (human) (UniProt P27448)
PRKAA2 (human) = PRKAA2 (human) (UniProt P54646)
ACVR2A (human) = ACVR2A (human) (UniProt P27037)
TGFBR2 (human) = TGFBR2 (human) (UniProt P37173)
CHEK1 (human) = CHEK1 (human) (UniProt O14757)
INSRR (human) = INSRR (human) (UniProt P14616)
CAMK2G (human) = CAMK2G (human) (UniProt Q13555)
STK17A (human) = STK17A (human) (UniProt Q9UEE5)
AURKB (human) = AURKB (human) (UniProt Q96GD4)
DMPK (human) = DMPK (human) (UniProt Q09013)
FRK (human) = FRK (human) (UniProt P42685)
STK24 (human) = STK24 (human) (UniProt Q9Y6E0)
[3] = test system: ABL1 (human), P00519 [M351T]
CSNK1A1L (human) = CSNK1A1L (human) (UniProt Q8N752)
STK11 (human) = STK11 (human) (UniProt Q15831)
STK4 (human) = STK4 (human) (UniProt Q13043)
PIK3C2B (human) = PIK3C2B (human) (UniProt O00750)
BMPR1A (human) = BMPR1A (human) (UniProt P36894)
[4] = test system: FLT3 (human), P36888 [N841I]
NEK9 (human) = NEK9 (human) (UniProt Q8TD19)
MAPK8 (human) = MAPK8 (human) (UniProt P45983)
MST1R (human) = MST1R (human) (UniProt Q04912)
TLK2 (human) = TLK2 (human) (UniProt Q86UE8)
INSR (human) = INSR (human) (UniProt P06213)
CDC42BPA (human) = CDC42BPA (human) (UniProt Q5VT25)
PIK3CD (human) = PIK3CD (human) (UniProt O00329)
PAK3 (human) = PAK3 (human) (UniProt O75914)
MAP4K3 (human) = MAP4K3 (human) (UniProt Q8IVH8)
CLK4 (human) = CLK4 (human) (UniProt Q9HAZ1)
DAPK2 (human) = DAPK2 (human) (UniProt Q9UIK4)
[5] = biological target: TYK2 JH1 catalytic (human) (UniProt P29597)
CDC42BPG (human) = CDC42BPG (human) (UniProt Q6DT37)
CDK5 (human) = CDK5 (human) (UniProt Q00535)
Sequence of CDK5 (human) (Q00535 whole entry, looked up): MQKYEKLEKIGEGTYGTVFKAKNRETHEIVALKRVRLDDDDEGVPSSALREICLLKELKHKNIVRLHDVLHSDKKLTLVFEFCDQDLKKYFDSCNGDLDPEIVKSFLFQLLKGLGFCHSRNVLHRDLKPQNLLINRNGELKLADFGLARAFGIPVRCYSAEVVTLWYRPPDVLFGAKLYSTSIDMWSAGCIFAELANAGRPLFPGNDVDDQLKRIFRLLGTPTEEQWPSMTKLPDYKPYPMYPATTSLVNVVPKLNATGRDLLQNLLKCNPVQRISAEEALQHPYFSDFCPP

Sequence of MERTK (human) (Q12866 whole entry, looked up): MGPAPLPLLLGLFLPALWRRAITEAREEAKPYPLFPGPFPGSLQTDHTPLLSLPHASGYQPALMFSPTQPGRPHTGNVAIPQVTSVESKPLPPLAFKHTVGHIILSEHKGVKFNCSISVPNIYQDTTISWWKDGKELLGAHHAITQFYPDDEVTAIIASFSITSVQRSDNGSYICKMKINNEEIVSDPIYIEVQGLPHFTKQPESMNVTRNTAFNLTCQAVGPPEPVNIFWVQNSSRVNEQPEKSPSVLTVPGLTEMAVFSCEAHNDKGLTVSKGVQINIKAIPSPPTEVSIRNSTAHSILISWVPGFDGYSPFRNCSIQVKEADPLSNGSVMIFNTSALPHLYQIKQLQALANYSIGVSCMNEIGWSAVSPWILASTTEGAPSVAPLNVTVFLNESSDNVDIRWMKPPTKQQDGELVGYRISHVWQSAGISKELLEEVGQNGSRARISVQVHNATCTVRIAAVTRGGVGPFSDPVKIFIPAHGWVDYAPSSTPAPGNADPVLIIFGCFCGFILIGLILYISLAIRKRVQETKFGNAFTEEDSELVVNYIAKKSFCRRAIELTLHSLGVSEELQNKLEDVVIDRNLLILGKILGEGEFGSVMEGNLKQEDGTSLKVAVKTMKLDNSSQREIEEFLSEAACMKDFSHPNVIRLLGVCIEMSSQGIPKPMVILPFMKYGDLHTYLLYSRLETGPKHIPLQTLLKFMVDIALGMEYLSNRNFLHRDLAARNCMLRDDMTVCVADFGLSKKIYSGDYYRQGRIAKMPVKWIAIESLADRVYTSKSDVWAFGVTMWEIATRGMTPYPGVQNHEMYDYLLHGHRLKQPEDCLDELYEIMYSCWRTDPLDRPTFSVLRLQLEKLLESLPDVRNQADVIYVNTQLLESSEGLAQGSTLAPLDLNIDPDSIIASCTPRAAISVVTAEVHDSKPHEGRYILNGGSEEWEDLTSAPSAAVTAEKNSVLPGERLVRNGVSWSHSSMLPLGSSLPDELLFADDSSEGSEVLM
Sequence of AURKB (human) (Q96GD4 whole entry, looked up): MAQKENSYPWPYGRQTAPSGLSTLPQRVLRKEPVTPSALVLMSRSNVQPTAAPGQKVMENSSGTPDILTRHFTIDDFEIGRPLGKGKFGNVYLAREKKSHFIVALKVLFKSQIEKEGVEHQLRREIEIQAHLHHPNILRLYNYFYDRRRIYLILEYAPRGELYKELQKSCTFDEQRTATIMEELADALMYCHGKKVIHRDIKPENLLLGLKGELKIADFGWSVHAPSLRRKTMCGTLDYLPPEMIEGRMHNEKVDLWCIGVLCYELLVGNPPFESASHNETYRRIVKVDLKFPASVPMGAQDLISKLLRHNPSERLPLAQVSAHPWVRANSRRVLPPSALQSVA
Sequence of DMPK (human) (Q09013 whole entry, looked up): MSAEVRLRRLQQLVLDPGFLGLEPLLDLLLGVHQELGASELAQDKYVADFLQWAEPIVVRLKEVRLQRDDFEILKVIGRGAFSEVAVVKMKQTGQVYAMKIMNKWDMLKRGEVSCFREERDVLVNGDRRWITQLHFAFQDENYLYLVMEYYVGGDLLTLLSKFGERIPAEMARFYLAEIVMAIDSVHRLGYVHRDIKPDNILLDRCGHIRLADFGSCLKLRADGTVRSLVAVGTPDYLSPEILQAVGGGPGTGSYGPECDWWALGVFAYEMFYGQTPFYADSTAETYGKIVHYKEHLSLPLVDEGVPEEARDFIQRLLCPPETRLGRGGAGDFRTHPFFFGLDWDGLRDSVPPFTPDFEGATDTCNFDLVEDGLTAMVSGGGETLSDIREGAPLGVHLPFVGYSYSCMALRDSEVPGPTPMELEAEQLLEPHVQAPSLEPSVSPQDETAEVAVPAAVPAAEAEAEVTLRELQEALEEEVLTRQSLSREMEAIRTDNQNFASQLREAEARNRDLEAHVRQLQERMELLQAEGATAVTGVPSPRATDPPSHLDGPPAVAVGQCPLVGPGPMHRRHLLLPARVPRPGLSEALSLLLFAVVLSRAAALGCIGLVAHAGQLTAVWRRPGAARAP
Sequence of FGFR1 (human) (P11362 whole entry, looked up): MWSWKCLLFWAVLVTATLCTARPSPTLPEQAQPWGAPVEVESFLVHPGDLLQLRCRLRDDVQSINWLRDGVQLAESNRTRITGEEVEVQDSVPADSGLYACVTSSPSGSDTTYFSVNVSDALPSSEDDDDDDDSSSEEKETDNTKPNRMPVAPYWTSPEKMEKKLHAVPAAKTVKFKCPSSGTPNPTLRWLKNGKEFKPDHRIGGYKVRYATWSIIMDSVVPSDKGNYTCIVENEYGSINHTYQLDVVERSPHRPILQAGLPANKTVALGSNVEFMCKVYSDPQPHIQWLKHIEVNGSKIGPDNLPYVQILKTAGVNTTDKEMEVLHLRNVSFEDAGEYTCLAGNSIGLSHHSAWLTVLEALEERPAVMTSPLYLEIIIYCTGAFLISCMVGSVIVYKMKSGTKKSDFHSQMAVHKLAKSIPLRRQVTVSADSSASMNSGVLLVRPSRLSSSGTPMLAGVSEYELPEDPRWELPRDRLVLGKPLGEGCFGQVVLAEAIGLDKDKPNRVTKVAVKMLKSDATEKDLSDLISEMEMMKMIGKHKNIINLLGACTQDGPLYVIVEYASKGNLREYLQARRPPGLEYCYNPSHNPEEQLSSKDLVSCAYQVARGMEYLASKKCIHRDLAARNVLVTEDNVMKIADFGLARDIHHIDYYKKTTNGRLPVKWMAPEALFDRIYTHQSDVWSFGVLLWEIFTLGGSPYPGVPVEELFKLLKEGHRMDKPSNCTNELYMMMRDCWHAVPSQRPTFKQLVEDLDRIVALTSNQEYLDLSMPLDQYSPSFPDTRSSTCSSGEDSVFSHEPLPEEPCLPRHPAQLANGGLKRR
Sequence of CSNK1A1L (human) (Q8N752 whole entry, looked up): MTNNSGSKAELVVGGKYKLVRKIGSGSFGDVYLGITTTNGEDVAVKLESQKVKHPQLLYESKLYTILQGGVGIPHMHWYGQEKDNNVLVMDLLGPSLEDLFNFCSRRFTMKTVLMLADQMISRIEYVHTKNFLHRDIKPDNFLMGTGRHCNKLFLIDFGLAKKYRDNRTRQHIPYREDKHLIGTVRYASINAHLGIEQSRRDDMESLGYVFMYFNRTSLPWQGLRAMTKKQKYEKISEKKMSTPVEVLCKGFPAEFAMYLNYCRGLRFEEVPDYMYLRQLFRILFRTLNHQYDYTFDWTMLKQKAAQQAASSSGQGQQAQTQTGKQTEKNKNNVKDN
Sequence of PLK1 (human) (P53350 whole entry, looked up): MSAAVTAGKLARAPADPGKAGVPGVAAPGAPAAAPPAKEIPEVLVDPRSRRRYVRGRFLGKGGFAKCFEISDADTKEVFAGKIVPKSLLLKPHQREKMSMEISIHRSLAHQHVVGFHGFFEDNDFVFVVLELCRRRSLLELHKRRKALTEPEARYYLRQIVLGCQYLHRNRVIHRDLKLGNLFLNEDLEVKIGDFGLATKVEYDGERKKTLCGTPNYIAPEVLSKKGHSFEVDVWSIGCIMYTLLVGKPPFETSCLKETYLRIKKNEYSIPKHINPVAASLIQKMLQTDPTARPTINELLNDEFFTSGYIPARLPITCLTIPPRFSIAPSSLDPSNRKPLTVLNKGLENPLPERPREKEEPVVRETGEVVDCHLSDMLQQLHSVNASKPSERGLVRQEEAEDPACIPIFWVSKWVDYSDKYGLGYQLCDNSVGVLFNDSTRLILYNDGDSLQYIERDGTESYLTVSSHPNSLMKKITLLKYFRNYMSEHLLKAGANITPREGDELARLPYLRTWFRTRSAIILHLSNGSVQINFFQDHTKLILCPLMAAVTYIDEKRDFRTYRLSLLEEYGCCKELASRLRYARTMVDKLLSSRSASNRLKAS
Sequence of TGFBR2 (human) (P37173 whole entry, looked up): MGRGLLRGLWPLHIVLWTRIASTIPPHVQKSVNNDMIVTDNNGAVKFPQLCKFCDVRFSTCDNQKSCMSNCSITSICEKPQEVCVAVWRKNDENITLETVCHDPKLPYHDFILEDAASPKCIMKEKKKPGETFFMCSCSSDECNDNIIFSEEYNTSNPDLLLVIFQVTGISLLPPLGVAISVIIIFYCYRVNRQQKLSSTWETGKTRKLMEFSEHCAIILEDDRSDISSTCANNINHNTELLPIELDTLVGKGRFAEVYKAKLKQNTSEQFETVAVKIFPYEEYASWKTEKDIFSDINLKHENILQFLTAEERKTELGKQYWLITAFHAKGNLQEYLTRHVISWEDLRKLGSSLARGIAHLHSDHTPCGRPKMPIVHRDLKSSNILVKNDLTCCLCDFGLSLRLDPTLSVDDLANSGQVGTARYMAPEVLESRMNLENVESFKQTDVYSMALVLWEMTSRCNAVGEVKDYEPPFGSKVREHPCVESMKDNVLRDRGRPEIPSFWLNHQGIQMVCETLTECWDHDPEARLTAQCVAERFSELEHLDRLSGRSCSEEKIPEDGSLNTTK
Sequence of DAPK2 (human) (Q9UIK4 whole entry, looked up): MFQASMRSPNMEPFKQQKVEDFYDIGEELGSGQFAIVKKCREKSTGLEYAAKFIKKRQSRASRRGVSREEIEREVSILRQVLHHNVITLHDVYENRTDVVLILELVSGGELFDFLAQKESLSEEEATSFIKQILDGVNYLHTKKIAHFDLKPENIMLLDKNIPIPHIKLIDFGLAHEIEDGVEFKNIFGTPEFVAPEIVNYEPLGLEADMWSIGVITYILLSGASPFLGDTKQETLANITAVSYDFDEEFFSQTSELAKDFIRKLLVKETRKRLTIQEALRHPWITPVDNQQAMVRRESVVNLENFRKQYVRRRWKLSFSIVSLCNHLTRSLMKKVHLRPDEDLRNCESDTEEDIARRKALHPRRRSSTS

SMILES	kinase still bound, per cent of control [1] [%]	kinase still bound, per cent of control (FGFR1 (human)) [%]	kinase still bound, per cent of control (MAP3K11 (human)) [%]	kinase still bound, per cent of control [2] [%]	kinase still bound, per cent of control (MERTK (human)) [%]	kinase still bound, per cent of control (PLK1 (human)) [%]	kinase still bound, per cent of control (CDK17 (human)) [%]	kinase still bound, per cent of control (MARK3 (human)) [%]	kinase still bound, per cent of control (PRKAA2 (human)) [%]	kinase still bound, per cent of control (ACVR2A (human)) [%]	kinase still bound, per cent of control (TGFBR2 (human)) [%]	kinase still bound, per cent of control (CHEK1 (human)) [%]	kinase still bound, per cent of control (INSRR (human)) [%]	kinase still bound, per cent of control (CAMK2G (human)) [%]	kinase still bound, per cent of control (STK17A (human)) [%]	kinase still bound, per cent of control (AURKB (human)) [%]	kinase still bound, per cent of control (DMPK (human)) [%]	kinase still bound, per cent of control (FRK (human)) [%]	kinase still bound, per cent of control (STK24 (human)) [%]	kinase still bound, per cent of control [3] [%]	other results
C[C@@H](Oc1cc(-n2cnc3ccc(CN4CCN(C)CC4)cc32)sc1C(N)=O)c1ccccc1C(F)(F)F	10	37	75	38	24	0.1	90	63	80	100	100	100	100	15	100	80	63	100	81	93	kinase still bound, per cent of control (CSNK1A1L (human)): 84%; kinase still bound, per cent of control (STK11 (human)): 90%; kinase still bound, per cent of control (STK4 (human)): 100%; kinase still bound, per cent of control (PIK3C2B (human)): 14%; kinase still bound, per cent of control (BMPR1A (human)): 28%; kinase still bound, per cent of control [4]: 1.2%; kinase still bound, per cent of control (NEK9 (human)): 10%; kinase still bound, per cent of control (MAPK8 (human)): 100%; kinase still bound, per cent of control (MST1R (human)): 100%; kinase still bound, per cent of control (TLK2 (human)): 94%; kinase still bound, per cent of control (INSR (human)): 100%; kinase still bound, per cent of control (CDC42BPA (human)): 95%; kinase still bound, per cent of control (PIK3CD (human)): 14%; kinase still bound, per cent of control (PAK3 (human)): 96%; kinase still bound, per cent of control (MAP4K3 (human)): 59%; kinase still bound, per cent of control (CLK4 (human)): 59%; kinase still bound, per cent of control (DAPK2 (human)): 15%; kinase still bound, per cent of control [5]: 81%; kinase still bound, per cent of control (CDC42BPG (human)): 100%; kinase still bound, per cent of control (CDK5 (human)): 100%
OCCCNc1cc(-c2ccnc(Nc3cccc(Cl)c3)n2)ccn1	100	100	100	100	100	100	100	100	100	100	100	100	100	100	100	100	100	100	100	100	kinase still bound, per cent of control (CSNK1A1L (human)): 100%; kinase still bound, per cent of control (STK11 (human)): 100%; kinase still bound, per cent of control (STK4 (human)): 100%; kinase still bound, per cent of control (PIK3C2B (human)): 100%; kinase still bound, per cent of control (BMPR1A (human)): 100%; kinase still bound, per cent of control [4]: 100%; kinase still bound, per cent of control (NEK9 (human)): 100%; kinase still bound, per cent of control (MAPK8 (human)): 100%; kinase still bound, per cent of control (MST1R (human)): 100%; kinase still bound, per cent of control (TLK2 (human)): 100%; kinase still bound, per cent of control (INSR (human)): 100%; kinase still bound, per cent of control (CDC42BPA (human)): 100%; kinase still bound, per cent of control (PIK3CD (human)): 100%; kinase still bound, per cent of control (PAK3 (human)): 100%; kinase still bound, per cent of control (MAP4K3 (human)): 100%; kinase still bound, per cent of control (CLK4 (human)): 14%; kinase still bound, per cent of control (DAPK2 (human)): 100%; kinase still bound, per cent of control [5]: 100%; kinase still bound, per cent of control (CDC42BPG (human)): 100%; kinase still bound, per cent of control (CDK5 (human)): 100%
